Laboratory results published in patent US9241487B2, “Pyrimidine derivatives and use thereof as pesticides” (BAYER INTELLECTUAL PROPERTY GMBH, priority 2010, dated 2016).

Experiments:
[1] = log P by HPLC on reversed-phase columns (C 18), EEC directive 79/831 Annex V.A8; format: physicochemical; conditions: reversed-phase HPLC columns (C 18); method [a]: LC-MS, acidic range pH 2.7, 0.1% aqueous formic acid/acetonitrile, gradient 10% to 95% acetonitrile
Experimental: The log P values were measured according to EEC directive 79/831 Annex V.A8 by HPLC (High Performance Liquid Chromatography) on reversed-phase columns (C 18), using the methods below: [a] The LC-MS determination in the acidic range is carried out at pH 2.7 with 0.1% aqueous formic acid and acetonitrile (contains 0.1% formic acid) as mobile phases; linear gradient from 10% acetonitrile to 95% acetonitrile.

Sphaerotheca fuliginea = assay: Sphaerotheca test (cucumber)/protective; format: in vivo; conditions: Podosphaera fuliginea, 168 h, cucumber plants, protective spray, evaluation 7 days after inoculation, read-out: Efficacy (%)
Experimental: Sphaerotheca Test (Cucumber)/Protective
(§1) Solvent: 49 parts by weight of N,N-dimethylformamide
(§2) Emulsifier: 1 part by weight of alkylaryl polyglycol ether
To produce a suitable preparation of active compound, 1 part by weight of active compound is mixed with the stated amounts of solvent and emulsifier, and the concentrate is diluted with water to the desired concentration. To test for protective activity, young cucumber plants are sprayed with the preparation of active compound at the stated application rate. 1 day after the treatment, the plants are inoculated with a spore suspension of Sphaerotheca fuliginea. The plants are then placed in a greenhouse at 70% relative air humidity and a temperature of 23° C. Evaluation follows 7 days after the inoculation. 0% means an efficacy which corresponds to that of the control, whereas an efficacy of 100% means that no infection is observed. In this test, the following compounds according to the invention show, at an active compound concentration of 500 ppm, an efficacy of 70% or more: […]

Alternaria solani = assay: Alternaria test (tomato)/protective; format: in vivo; conditions: 168 h, tomato plants, protective spray, evaluation 7 days after inoculation, read-out: Efficacy (%)
Experimental: Alternaria Test (Tomato)/Protective
as §1, §2
To produce a suitable preparation of active compound, 1 part by weight of active compound is mixed with the stated amounts of solvent and emulsifier, and the concentrate is diluted with water to the desired concentration. To test for protective activity, young tomato plants are sprayed with the preparation of active compound at the stated application rate. 1 day after the treatment, the plants are inoculated with a spore suspension of Alternaria solani and then remain at 100% rd. humidity and 22° C. for 24 h. The plants then remain at 96% rd. atmospheric humidity and a temperature of 20° C. Evaluation is carried out 7 days after the inoculation. 0% means an efficacy which corresponds to that of the control, whereas an efficacy of 100% means that no infection is observed.
(§3) In this test, the following compounds according to the invention show, at an active compound concentration of 500 ppm, an efficacy of 70% or more: […]

Leptosphaeria nodorum = Leptosphaeria nodorum test (wheat)/protective; format: in vivo; conditions: Parastagonospora nodorum, wheat plants, protective spray, evaluation 7-9 days after inoculation, read-out: Efficacy (%)
Experimental: Leptosphaeria nodorum Test (Wheat)/Protective
as §1, §2
To produce a suitable preparation of active compound, 1 part by weight of active compound is mixed with the stated amounts of solvent and emulsifier, and the concentrate is diluted with water to the desired concentration. To test for protective activity, young wheat plants are sprayed with the preparation of active compound at the stated application rate. 1 day after the treatment, the plants are inoculated with an aqueous spore suspension of Leptosphaeria nodorum and then remain at 100% relative atmospheric humidity and 22° C. for 48 h. The plants are then placed in a greenhouse at 90% relative atmospheric humidity and a temperature of 22° C. Evaluation is carried out 7-9 days after the inoculation. 0% means an efficacy which corresponds to that of the control, whereas an efficacy of 100% means that no infection is observed. In this test, the following compounds according to the invention show, at an active compound concentration of 500 ppm, an efficacy of 70% or more: […]

[2] = tested on: Blumeria graminis fsp. hordei; assay: Blumeria graminis test (barley)/protective; format: in vivo; conditions: 168 h, protective spray, evaluation 7 days after inoculation, read-out: Efficacy (%)
Experimental: Blumeria graminis Test (Barley)/Protective
(§4) Solvent: 49 parts by weight of N,N-dimethylacetamide
as §2
To produce a suitable preparation of active compound, 1 part by weight of active compound is mixed with the stated amounts of solvent and emulsifier, and the concentrate is diluted with water to the desired concentration. To test for protective activity, young plants are sprayed with the preparation of active compound at the stated application rate. After the spray coating has dried on, the plants are dusted with spores of Blumeria graminis fsp. hordei. The plants are placed in a greenhouse at a temperature of about 18° C. and a relative air humidity of about 80% to promote the development of mildew pustules. Evaluation follows 7 days after the inoculation. 0% means an efficacy which corresponds to that of the control, whereas an efficacy of 100% means that no infection is observed.
as §3

Septoria tritici = Septoria tritici test (wheat)/protective; format: in vivo; conditions: Zymoseptoria tritici, 504 h, protective spray, evaluation 21 days after inoculation, read-out: Efficacy (%)
Experimental: Septoria tritici Test (Wheat)/Protective
as §4, §2
(§5) To produce a suitable preparation of active compound, 1 part by weight of active compound is mixed with the stated amounts of solvent and emulsifier, and the concentrate is diluted with water to the desired concentration. To test for protective activity, young plants are sprayed with the preparation of active compound at the stated application rate. After the spray coating has dried on, the plants are sprayed with a spore suspension of Septoria tritici. The plants remain in an incubation cabin at 20° C. and 100% relative atmospheric humidity for 48 hours. Thereafter, the plants are placed under a translucent hood at 15° C. and 100% relative air humidity for a further 60 hours. The plants are placed in a greenhouse at a temperature of about 15° C. and a relative atmospheric humidity of about 80%. Evaluation follows 21 days after the inoculation. 0% means an efficacy which corresponds to that of the control, whereas an efficacy of 100% means that no infection is observed.
as §3

Puccinia triticina = Puccinia triticina test (wheat)/protective; format: in vivo; conditions: 192 h, protective spray, evaluation 8 days after inoculation, read-out: Efficacy (%)
Experimental: Puccinia triticina Test (Wheat)/Protective
as §4, §2
as §5, with “sprayed with spores with a spore” for “sprayed with a spore”, “suspension of Puccinia triticina. The plants” for “suspension of Septoria tritici. The plants”, “48 hours. The plants” for “48 hours. Thereafter, the plants are placed under a translucent hood at 15° C. and 100% relative air humidity for a further 60 hours. The plants”, “of about 20° C. and” for “of about 15° C. and”, “Evaluation follows 8 days after” for “Evaluation follows 21 days after”
as §3

Venturia inaequalis = assay: Venturia test (apple)/protective; format: in vivo; conditions: 240 h, protective spray, evaluation 10 days after inoculation, read-out: Efficacy (%)
Experimental: Venturia Test (Apple)/Protective
(§6) Solvents: 24.5 parts by weight of acetone
(§7) • 24.5 parts by weight of dimethylacetamide Emulsifier: 1 part by weight of alkylaryl polyglycol ether
(§8) To produce a suitable preparation of active compound, 1 part by weight of active compound is mixed with the stated amounts of solvent and emulsifier, and the concentrate is diluted with water to the desired concentration. To test for protective activity, young plants are sprayed with the preparation of active compound at the stated application rate. After the spray coating has dried on, the plants are inoculated with an aqueous conidia suspension of the apple scab pathogen Venturia inaequalis and then remain in an incubation cabin at approx. 20° C. and 100% relative air humidity for 1 day. The plants are then placed in the greenhouse at about 21° C. and a relative atmospheric humidity of about 90%. Evaluation follows 10 days after the inoculation. 0% means an efficacy which corresponds to that of the control, whereas an efficacy of 100% means that no infection is observed.
(§9) In this test, the following compounds according to the invention show, at an active compound concentration of 100 ppm, an efficacy of 70% or more: […]

Uromyces appendiculatus = assay: Uromyces test (bean)/protective; format: in vivo; conditions: 240 h, protective spray, evaluation 10 days after inoculation, read-out: Efficacy (%)
Experimental: Uromyces Test (Bean)/Protective
as §6, §7
as §8, with “spore” for “conidia”, “bean rust” for “apple scab”, “Uromyces appendiculatus” for “Venturia inaequalis”, “about” for “approx.”, “atmospheric” for “air”
as §9

chromatographic logP [1]	Structure (SMILES)	pest or weed control at 500 ppm (Sphaerotheca fuliginea)	pest or weed control at 500 ppm (Alternaria solani)	pest or weed control at 500 ppm (Leptosphaeria nodorum)	pest or weed control at 500 ppm [2]	pest or weed control at 500 ppm (Septoria tritici)	pest or weed control at 500 ppm (Puccinia triticina)	pest or weed control at 100 ppm (Venturia inaequalis)	pest or weed control at 100 ppm (Uromyces appendiculatus)
3.3	CC1(C(O)(COc2ccc(SC(F)(F)F)cc2)c2cncnc2)CC1 (stereo not drawn) [Compound 19]	95%	90%	95%	100%	86%	100%		
3.59	Cc1cc(OC(F)(F)F)ccc1OCC(O)(c1cncnc1)C(C)(C)C (stereo not drawn) [Compound 30]	100%	90%	89%	100%	71%	100%	98%	100%
3.76	CC(C)(C)C(O)(COc1ccc(SC(F)(F)F)c(Cl)c1)c1cncnc1 (stereo not drawn) [Compound 31]	100%	95%	95%				99%	100%
2.82	CC(C)(C)C(O)(COc1ccc(S(=O)(=O)C(F)(F)F)cc1)c1cncnc1 (stereo not drawn) [Compound 33]	95%	89%	94%	100%		100%	99%	100%
